In patent US11259522B2, “Control of resistant pests” (priority 2017, dated 2022):
In brackets after ≈: the same amount, converted by molar mass. Several values for one entry are separate records, joined by “and”; a condition that tells them apart may be missing. Equal entries are not always repeated. Where two headings read alike, the source gives them in different places.

Legend:
[1] = tested on: Halotydeus destructor susceptible population; test: Coated plastic vial bioassay, redlegged earth mite, susceptible population; assay type: in vivo; conditions: for LC50: Halotydeus destructor, read-out: LC50 (mg a.i./L)
Protocol: The efficacy of flavesone against H. destructor was assessed using the glass vial technique developed by Hoffmann et al. (1997, Exp. Appl. Acarol., 21:151-162), adapted for plastic vials. A susceptible population of mites was collected from capeweed (Arctotheca calendula) at a Victorian site (37° 40′33″S, 145° 07′ 45″E) that had no known history of insecticide application. Following collection, samples were stored in small plastic containers with leaf material and paper towel to absorb excess moisture. Containers were kept at 4° C. prior to testing.
(§1) The test compositions included 0.1% Tween 20 non-ionic surfactant to aid the spread of insecticides when coating plastic vials. This concentration of Tween 20 has been previously shown to have no toxic effect on H. destructor. For each insecticide concentration tested, 3, 10, 30, 100, 300, 1000, 3000 and 10000 mg a.i./L (ppm), approximately 10 mL of solution was poured into a 15 mL plastic vial and swirled to ensure a complete coating, with excess liquid removed. Eight vials were coated per concentration and were left to dry overnight. Control vials were treated in the same way but with water used in place of test composition.
Eight susceptible H. destructor mites were then placed into each vial along with a leaf of common vetch (Vicia sativa). The leaf was added to provide food and increase humidity. Vials were then sealed with a lid and placed at 18° C. After 4, 6, 8 and 24 hours of exposure, the mites were scored as alive (moving freely), incapacitated (inhibited movement), or dead (no movement over a 5 second period). […]
(§2) The data produced in the assays were assessed for concentrations that caused 50, 90 and 99% mortality (lethal concentration, LC), together with 95% confidence intervals (CIs) and were estimated from observations of mortality after 24 hours exposure using a binomial logistic regression (Robertson & Preisler, 1992, Pesticide Bioassays with Arthropods. CRC: Boca Raton; Venables & Ripley, 2002, Modern Applied Statistics with S. Springer: New York). Population differences were tested by comparing the change in model deviance with and without the population factor (different regression intercepts for each population). Differences in regression slopes between populations were tested by comparing the change in model deviance with and without the population×dose interaction term. The resistance ratio of the insecticide-resistant population was estimated as the ratio of its LC50 to that of the susceptible population. All analyses were performed using R 3.3. (R Core Team 2017, R: A language and environment for statistical computing. R Foundation for Statistical Computing, Vienna, Austria. http://www.R-project.org).

[2] = tested on: Halotydeus destructor resistant population (synthetic pyrethroid resistance); test: Coated plastic vial bioassay, redlegged earth mite, resistant population; assay type: in vivo; conditions: 24 hours exposure; for LC50: Halotydeus destructor, 24 h
Protocol: as §1
Eight susceptible H. destructor mites were then placed into each vial along with a leaf of common vetch (Vicia sativa). The leaf was added to provide food and increase humidity. Vials were then sealed with a lid and placed at 18° C. After 4, 6, 8 and 24 hours of exposure, the mites were scored as alive (moving freely), incapacitated (inhibited movement), or dead (no movement over a 5 second period).
The resistant population of H. destructor was collected from a lucerne paddock in the Upper South-East district of South Australia, where resistance to synthetic pyrethroids was confirmed in late 2016.
as §2

[3] = tested on: Rhyzopertha dominica strain QRD1440 (resistant to OP protectants and pyrethroids); test: Grain protectant bioassay on treated wheat, resistant lesser grain borer; conditions: Example 5, QRD1440, replicates A, B, C; for F1 Progeny count No. dead/total: further 6 weeks
[4] = tested on: Rhipicephalus microplus larvae, multi-resistant Tiaro reference strain; test: Larval packet test (LPT), cattle tick larvae, multi-resistant strain; assay type: in vivo; conditions: Example 2, 24 hours
Protocol: (§3) Filter papers (75 mm×85 mm Whatman® No. 541), with grid patterns, were impregnated on ½ of the paper with 225 μL of each solution using a micro-pipette and immediately folded in half, enveloped in polyethylene plastic and sealed with 3 bulldog clips. The impregnated papers were kept at room temperature on aluminium trays for a minimum of 60 minutes to allow for dispersal across the grid pattern of the paper prior to aliquoting of larvae. The packets were prepared in duplicate for each concentration, including the negative control.
(§4) Aliquots of approximately 100 larvae were placed into each packet using plastic disposable forceps and the packets resealed and incubated and 27° C. and 85% relative humidity (RH).
(§5) After 24 hours, the larval packets were opened and the numbers of dead and live larvae were counted under a magnification lamp. Percentage mortality was calculated and, where applicable, corrected using Abbott's Formula (Abbott, 1925, J. Economic Entomology, 18:256-257): […]
(§6) LC50 and LC99 values were determined by Probit mortality vs log concentration analysis. Probit values were derived from “Transformation of Percentages to Probit's Tables” published by Fisher R. A. and Yates F. (1938).
(§7) The LPT Assay of Example 1 was repeated using a narrow range of concentrations, 1 in 2 series, of flavesone to determine LC50 and LC99 values against the susceptible NRFS and the multi-resistant Tiaro reference strain.
The Tiaro strain of R. microplus comprises of about 30% fluazuron, 60.6% cypermethrin (SP), 57.6% flumethrin (SP), 16.2% amitraz (amidine), 11.3% DDT, 9.3% chlorpyrifos (OP) and 2.4% dieldrin resistance [2014 acaricide resistance profiling].
The stock solution of flavesone (100,000 ppm) was diluted 1 in 10 with olive oil (1 mL to 9 mL diluent) to give 10,000 ppm, which was then further diluted 1 in 2 in series (5 mL to 5 mL diluent) to give 5,000 ppm, 2,500 ppm, 1,250 ppm, 625 ppm, 312.5 ppm and 156.25 ppm concentrations.
For the preparation of the positive control, cypermethrin, a stock solution of a concentration of 10,000 ppm was prepared in 2:1 trichloroethylene (TCE)/olive oil as the solvent ([…] cypermethrin, 94.8% purity, to 10 mL solvent) and then further diluted 1 in 2 in series (5 mL to 5 mL solvent) to also give 5,000 ppm, 2,500 ppm, 1,250 ppm, 625 ppm, 312.5 ppm and 156.25 ppm.
The flavesone papers were prepared as in Example 1.
The cypermethrin papers were impregnated with 670 μL of each solution using a micro-pipette and hung on a rack in a fume-hood to allow papers to dry (evaporation of TCE) for a minimum of 60 minutes. The papers were then folded in half and sealed with three bulldog clips, placed on aluminium trays prior to aliquoting the larvae. All packets were prepared in duplicate.
A dose-response relationship was determined at 24 hours contact exposure.
Concentrations of 1,250 ppm, 625 ppm and 312.5 ppm flavesone concentrations prepared for Example 3 were used on the same day of preparation. Duplicate papers were prepared for both the NRFS and Tiaro strains (including negative controls) as described in Example 2.
Mortality was assessed at 48 hours and LC50 and LC99 values were determined by Probit mortality vs log concentration analysis.

[5] = tested on: Rhipicephalus microplus larvae, susceptible non-resistant field strain (NRFS); test: Larval packet test (LPT), cattle tick larvae, susceptible strain; assay type: in vivo; conditions: for LC50 (ppm) / LC99 (ppm): NRFS, 24 hours, Probit analysis; for mortality at 1250 ppm: 1,250 ppm
Protocol: The larval packet test (LPT) is a modification of that first described by Stone and Haydock (1962, Bull. Entomol. Res., 563-578, http://dx.doi.org/10.1017/5000748530004832X) for evaluation of field resistance in cattle tick (Rhipicephalus microplus) larvae.
The first LPT assay was conducted to identify the potential range of flavesone acaricidal activity against larvae of a susceptible non-resistant field strain (NRFS) of R. microplus as a reference strain using a wide range of concentrations (1 in 10 in series).
The test compound, flavesone, 6-isobutyryl-2,2,4,4-tetramethylcyclohexane-1,3,5-trione, 96.7%, was used. As its volatility/evaporative properties were unknown, the LPT method was modified to incorporate the use of suitably-sized polyethylene plastic sheets to envelop the larval packets, minimizing exposure of the test active to the atmosphere.
In addition, the use of the solvent trichloroethylene (TCE) was removed to avoid the time required for evaporation in the preparation of test papers. The test solutions were prepared in olive oil only at the diluent and the papers immediately enveloped in the plastic sheets and sealed with bulldog clips to minimize evaporation.
A stock solution with a concentration of 100,000 ppm (10%) flavesone was prepared in olive oil as the diluent (1.035 mL flavesone (96.7%) to 8.965 mL olive oil) and then further diluted 1 in 10 in series to also give 10,000 ppm, 1,000 ppm, 100 ppm, 10 ppm and 1 ppm concentration. The negative control was olive oil only. No positive control was included in this experiment. Due to the viscosity of the olive oil, all solutions were prepared using reverse pipetting technique.
as §3
An 8 dram vial containing approximately 20,000 hatched 7-21 day old NRFS larvae (about 1 g eggs) was opened and set up on a moated tray with a small amount of detergenated water, about 15 to 30 minute before use. Only larvae that migrated to the top of the vial were used in the assay.
as §4, §5, §6, §7
The stock solution of flavesone (100,000 ppm) was diluted 1 in 10 with olive oil (1 mL to 9 mL diluent) to give 10,000 ppm, which was then further diluted 1 in 2 in series (5 mL to 5 mL diluent) to give 5,000 ppm, 2,500 ppm, 1,250 ppm, 625 ppm, 312.5 ppm and 156.25 ppm concentrations. […]

[6] = tested on: Aedes aegypti Liverpool strain (insecticide susceptible, LVP) L3 larvae; test: Mosquito larval dose response assay, LVP strain; conditions: read-out: Lethal Concentration (LC50) LVP Strain
[7] = tested on: Aedes aegypti PRS Puerto Rican strain (synthetic pyrethroid resistant) L3 larvae; test: Mosquito larval dose response assay, PRS strain; conditions: read-out: Lethal Concentration (LC50) PRS Strain
[8] = Susceptible population, 24 hours exposure
[9] = Rhipicephalus microplus, 24 h, Example 2
[10] = Rhipicephalus microplus, 24 h, Example 3

## Cc1c(COC(=O)[C@@H]2[C@H](/C=C(\Cl)C(F)(F)F)C2(C)C)cccc1-c1ccccc1 (racemic) [Bifenthrin, bifenthrin]
[1]; [8]
  LC50: 0.04 µg/mL (≈ 0.0946 µM)
  LC90 (mg a.i./L): 2.66 mg a.i./L
  LC99 (mg a.i./L): 233.10 mg a.i./L
[2]
  resistance ratio (LC50 of resistant population to that of susceptible population): about 3,500 times
[2]; Resistant population, read-out: LC50 (mg a.i./L)
  LC50: 144 µg/mL (≈ 340 µM)
[2]; Resistant population
  LC90 (mg a.i./L): 5.4 × 10^5 mg a.i./L
  LC99 (mg a.i./L): 4.3 × 10^9 mg a.i./L

## CCOP(=S)(OCC)Oc1nc(Cl)c(Cl)cc1Cl [Chlorpyrifos, chlorpyrifos, reference compound]
[1]; 24 h
  LC50: 0.21 µg/mL (≈ 0.599 µM)
[1]; [8]
  LC90 (mg a.i./L): 0.76 mg a.i./L
  LC99 (mg a.i./L): 3.18 mg a.i./L
[3]; 5 ppm on wheat
  F1 Progeny count No. dead/total: 2/470 and 3/172 and 3/355
  14 Day adult mortality No. dead (total): 0/50 (2×) and 1/50
[3]; 10 ppm on wheat
  F1 Progeny count No. dead/total: 1/350 and 0/317 and 2/232
  14 Day adult mortality No. dead (total): 0/50
[2]
  resistance ratio (LC50 of resistant population to that of susceptible population): 6.5 times
[2]; read-out: LC50 (mg a.i./L), Resistant population
  LC50: 1.37 µg/mL (≈ 3.91 µM)
[2]; Resistant population
  LC90 (mg a.i./L): 7.76 mg a.i./L
  LC99 (mg a.i./L): 51.56 mg a.i./L

## CC1(C)C(C=C(Cl)Cl)C1C(=O)OC(C#N)c1cccc(Oc2ccccc2)c1 (centres unmarked) [Cypermethrin, cypermethrin, reference compound]
[4]; Tiaro, Probit analysis
  LC50 (ppm): 3082 ppm
  LC99 (ppm): >10,000 ppm
[4]; Rhipicephalus microplus, 2.500 ppm
  mortality at 2.5 ppm: 59.7%
[4]; Rhipicephalus microplus, 156.25 ppm
  mortality at 156.25 ppm: 0.56%
[4]; Rhipicephalus microplus, 312.5 ppm
  mortality at 312.5 ppm: 20.4%
[4]; Rhipicephalus microplus, 625 ppm
  mortality at 625 ppm: 21.9%
[4]; Rhipicephalus microplus, 1,250 ppm
  mortality at 1250 ppm: 20.9%
[4]; Rhipicephalus microplus, 5,000 ppm
  mortality at 5000 ppm: 62.2%
[4]; Rhipicephalus microplus, 10,000 ppm
  mortality at 10000 ppm: 66.8%
[5]; Example 2
  LC50 (ppm): 128 ppm
  LC99 (ppm): 540 ppm
[5]; Example 3
  LC50 (ppm): 112 ppm
  LC99 (ppm): 317 ppm
[5]; Rhipicephalus microplus, 24 h, Example 2, 2.500 ppm
  mortality at 2.5 ppm: 100%
[5]; [9]
  mortality at 156.25 ppm: 67.3%
  mortality at 312.5 ppm: 89%
  mortality at 625 ppm: 99.6%
  mortality at 1250 ppm: 100%
[5]; Rhipicephalus microplus, 24 h, Example 2, 5,000 ppm
  mortality at 5000 ppm: 100%
[5]; Rhipicephalus microplus, 24 h, Example 2, 10,000 ppm
  mortality at 10000 ppm: 100%
[5]; Rhipicephalus microplus, 24 h, Example 3, 39.0625 ppm
  mortality at 39.0625 ppm: 0%
[5]; Rhipicephalus microplus, 24 h, Example 3, 78.125 ppm
  mortality at 78.125 ppm: 20.6%
[5]; [10]
  mortality at 156.25 ppm: 79.6%
  mortality at 312.5 ppm: 99.2%
  mortality at 625 ppm: 100%
  mortality at 1250 ppm: 100%

## CCOC(=O)CC(SP(=S)(OC)OC)C(=O)OCC (centres unmarked) [Malathion, malathion]
[6]; 24 h
  LC50: 0.11 µg/mL (≈ 0.334 µM)
[6]; 48 h
  LC50: 0.0389 µg/mL (≈ 0.118 µM)
[6]; 72 h
  LC50: 0.0298 µg/mL (≈ 0.0901 µM)
[7]; 24 h
  LC50: 0.291 µg/mL (≈ 0.88 µM)
[7]; 48 h
  LC50: 0.177 µg/mL (≈ 0.535 µM)
[7]; 72 h
  LC50: 0.127 µg/mL (≈ 0.384 µM)
